Patent US20110250135A1, “Piperazine Derivatives for Binding and Imaging Amyloid Plaques and Their Use” (Bayer Schering Pharma Aktiengesellschaft, priority 2008, published 2011)

Assays:
[1] = Biodistribution: organ distribution of F-18 signal in mice; assay type: in vivo, male NMRI mice; settings: for Organ distribution of F-18 signal, intestine: intestine (with content); for Organ distribution of F-18 signal, stomach: stomach (without content)
Experimental: Biodistribution and excretion studies were performed in male NMRI mice (body weight app. 30g; 3 animals per time point). The animals were kept under normal laboratory conditions at a temperature of 22±2° C. and a dark/light rhythm of 12 hours. Food and water were provided ad libitium. During an acclimation period of at least 3 days before the beginning of the study animals were clinically examined to ascertain the absence of abnormal clinical signs. At 2, 5, 30, 60, 240 min post intravenous injection via the tail vein of ca. 150 kBq in 100 μl of the test compound, urine and feces were quantitatively collected. At the same time points, animals were sacrificed by decapitation and under isoflurane anaesthesia and the following organs and tissues were removed for the determination of radioactivity using a gamma-counter: spleen, liver, kidney, lung, femur, heart, brain, fat, thyroid, muscle, skin, blood, tail, stomach (without content), testicle, intestine (with content), pancreas, adrenals, and the remaining body. For analysis the decay corrected percentage of the injected dose per tissue weight (% ID/g±standard deviation) was calculated.

Aβ plaques = target: T1, Aβ plaques (Homo sapiens, UniProt P05067); experiment: Autoradiographical analysis of binding to cryosections from cortex of AD patients and controls; settings: F-18 labeled compound; Alzheimer's disease patients (AD) vs controls without Aβ plaques
T1 construct: controls without Aβ plaques; from tissue; host or cells: frontal lobe / cortex sections (frozen and paraffin) from AD patients, FTD patients and age-matched controls
T1 sequence (P05067 672-713 limits assumed): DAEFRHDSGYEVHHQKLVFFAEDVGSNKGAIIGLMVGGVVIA
Source text: Fresh frozen as well as paraffin embedded sections of the frontal lobe from Alzheimer's dementia patients, frontotemporal dementia patients and age matched controls were used for the study. Frozen sections, sliced at 18 μm thickness on a cryostate (Leica, Germany) and paraffin sections, sliced on a sliding microtom (Leica) at a thickness of 6 μm, were mounted onto glass slides (Superfrost Plus, Fa.Menzel, Braunschweig Germany). Frozen sections were allowed to adhere to the slides for several nights at −20° C. The paraffin sections were deparaffinized using routine histological methods. For binding studies sections were incubated with the F-18 labeled test compound at 10 Bq/μl diluted in 25 mM Hepes buffer, pH 7.4, 0.1% (BSA) (200-300 μl/slide) for 1.5 hour at room temperature in a humidified chamber. For blocking experiments a 1000-fold access of the unlabeled test substance was added to the incubation mixture. After hybridization, sections were washed four times with Hepes buffer, 0.1% BSA (or alternatively two times with 40% ethanol) and finally dipped two times into dest. water for 10 sec. The air-dried sections were exposed to imaging plates and signals were detected by a phosphoimager device (Fuji BAS5000).

## O=C(NCC(=O)N1CCN(c2ccc(OCc3ccccc3)cn2)CC1)c1ccnc([18F])c1 [Example 14f, [^18F]-N-(2-{4-[5-(benzyloxy)pyridin-2-yl]piperazin-1-yl}-2-oxoethyl)-2-fluoropyridine-4carboxamide]
[1]; 2 min post i.v. injection
  Organ distribution of F-18 signal, adrenals: 16.31 % ID/g
  Organ distribution of F-18 signal, blood: 2.05 % ID/g
  Organ distribution of F-18 signal, brain: 3.87 % ID/g
  Organ distribution of F-18 signal, fat: 1.05 % ID/g
  Organ distribution of F-18 signal, femur: 1.44 % ID/g
  Organ distribution of F-18 signal, heart: 3.67 % ID/g
  Organ distribution of F-18 signal, intestine: 2.27 % ID/g
  Organ distribution of F-18 signal, kidney: 7.60 % ID/g
  Organ distribution of F-18 signal, liver: 8.19 % ID/g
  Organ distribution of F-18 signal, lung: 3.63 % ID/g
  Organ distribution of F-18 signal, muscle: 1.94 % ID/g
  Organ distribution of F-18 signal, pancreas: 4.49 % ID/g
  Organ distribution of F-18 signal, skin: 1.12 % ID/g
  Organ distribution of F-18 signal, spleen: 1.67 % ID/g
  Organ distribution of F-18 signal, stomach: 3.81 % ID/g
  Organ distribution of F-18 signal, tail: 5.14 % ID/g
  Organ distribution of F-18 signal, testicle: 1.42 % ID/g
  Organ distribution of F-18 signal, thyroid: 3.00 % ID/g
[1]; 5 min post i.v. injection
  Organ distribution of F-18 signal, adrenals: 6.14 % ID/g
  Organ distribution of F-18 signal, blood: 2.36 % ID/g
  Organ distribution of F-18 signal, brain: 3.14 % ID/g
  Organ distribution of F-18 signal, fat: 2.17 % ID/g
  Organ distribution of F-18 signal, femur: 1.38 % ID/g
  Organ distribution of F-18 signal, heart: 3.81 % ID/g
  Organ distribution of F-18 signal, intestine: 2.90 % ID/g
  Organ distribution of F-18 signal, kidney: 8.59 % ID/g
  Organ distribution of F-18 signal, liver: 13.46 % ID/g
  Organ distribution of F-18 signal, lung: 3.93 % ID/g
  Organ distribution of F-18 signal, muscle: 2.14 % ID/g
  Organ distribution of F-18 signal, pancreas: 4.49 % ID/g
  Organ distribution of F-18 signal, skin: 1.84 % ID/g
  Organ distribution of F-18 signal, spleen: 2.25 % ID/g
  Organ distribution of F-18 signal, stomach: 3.68 % ID/g
  Organ distribution of F-18 signal, tail: 4.06 % ID/g
  Organ distribution of F-18 signal, testicle: 1.73 % ID/g
  Organ distribution of F-18 signal, thyroid: 2.94 % ID/g
[1]; 30 min post i.v. injection
  Organ distribution of F-18 signal, adrenals: 1.57 % ID/g
  Organ distribution of F-18 signal, blood: 1.30 % ID/g
  Organ distribution of F-18 signal, brain: 0.52 % ID/g
  Organ distribution of F-18 signal, fat: 1.02 % ID/g
  Organ distribution of F-18 signal, femur: 0.55 % ID/g
  Organ distribution of F-18 signal, heart: 0.93 % ID/g
  Organ distribution of F-18 signal, intestine: 11.37 % ID/g
  Organ distribution of F-18 signal, kidney: 7.84 % ID/g
  Organ distribution of F-18 signal, liver: 5.20 % ID/g
  Organ distribution of F-18 signal, lung: 1.27 % ID/g
  Organ distribution of F-18 signal, muscle: 0.62 % ID/g
  Organ distribution of F-18 signal, pancreas: 1.64 % ID/g
  Organ distribution of F-18 signal, skin: 1.17 % ID/g
  Organ distribution of F-18 signal, spleen: 0.78 % ID/g
  Organ distribution of F-18 signal, stomach: 2.88 % ID/g
  Organ distribution of F-18 signal, tail: 2.28 % ID/g
  Organ distribution of F-18 signal, testicle: 0.79 % ID/g
  Organ distribution of F-18 signal, thyroid: 0.94 % ID/g
[1]; 60 min post i.v. injection
  Organ distribution of F-18 signal, adrenals: 1.35 % ID/g
  Organ distribution of F-18 signal, blood: 0.33 % ID/g
  Organ distribution of F-18 signal, brain: 0.13 % ID/g
  Organ distribution of F-18 signal, fat: 0.59 % ID/g
  Organ distribution of F-18 signal, femur: 0.24 % ID/g
  Organ distribution of F-18 signal, heart: 0.20 % ID/g
  Organ distribution of F-18 signal, intestine: 13.11 % ID/g
  Organ distribution of F-18 signal, kidney: 2.86 % ID/g
  Organ distribution of F-18 signal, liver: 1.87 % ID/g
  Organ distribution of F-18 signal, lung: 0.42 % ID/g
  Organ distribution of F-18 signal, muscle: 0.26 % ID/g
  Organ distribution of F-18 signal, pancreas: 0.32 % ID/g
  Organ distribution of F-18 signal, skin: 0.43 % ID/g
  Organ distribution of F-18 signal, spleen: 0.12 % ID/g
  Organ distribution of F-18 signal, stomach: 2.07 % ID/g
  Organ distribution of F-18 signal, tail: 0.67 % ID/g
  Organ distribution of F-18 signal, testicle: 0.27 % ID/g
  Organ distribution of F-18 signal, thyroid: 0.30 % ID/g
[1]; 240 min post i.v. injection
  Organ distribution of F-18 signal, adrenals: 0.23 % ID/g
  Organ distribution of F-18 signal, blood: 0.08 % ID/g
  Organ distribution of F-18 signal, brain: 0.02 % ID/g
  Organ distribution of F-18 signal, fat: 0.02 % ID/g
  Organ distribution of F-18 signal, femur: 0.13 % ID/g
  Organ distribution of F-18 signal, heart: 0.06 % ID/g
  Organ distribution of F-18 signal, intestine: 13.53 % ID/g
  Organ distribution of F-18 signal, kidney: 0.79 % ID/g
  Organ distribution of F-18 signal, liver: 0.90 % ID/g
  Organ distribution of F-18 signal, lung: 0.12 % ID/g
  Organ distribution of F-18 signal, muscle: 0.03 % ID/g
  Organ distribution of F-18 signal, pancreas: 0.11 % ID/g
  Organ distribution of F-18 signal, skin: 0.06 % ID/g
  Organ distribution of F-18 signal, spleen: 0.04 % ID/g
  Organ distribution of F-18 signal, stomach: 0.46 % ID/g
  Organ distribution of F-18 signal, tail: 0.31 % ID/g
  Organ distribution of F-18 signal, testicle: 0.04 % ID/g
  Organ distribution of F-18 signal, thyroid: 0.16 % ID/g
Aβ plaques
  autoradiographical analysis of binding to cryosections from cortex: Specific binding in plaque-rich regions of AD samples
